Source: ChEMBL document CHEMBL2074065, “Pravastatin, an HMG-CoA reductase inhibitor, is transported by rat organic anion transporting polypeptide, oatp2” (Pharm Res, 1999)
Values belong to the molecule of their own block, whether it stands above or below them.

Tests used:
[1] = target: T1, Solute carrier organic anion transporter family member 1A4 (Rattus norvegicus, UniProt O35913); experiment: TP_TRANSPORTER: inhibition of Pravastatin uptake (Pravastatin: 30 uM, Simvastatin: 300 uM) in Xenopus laevis oocytes; format: functional, cell-based; settings: oocyte
T1 sequence (O35913 whole entry): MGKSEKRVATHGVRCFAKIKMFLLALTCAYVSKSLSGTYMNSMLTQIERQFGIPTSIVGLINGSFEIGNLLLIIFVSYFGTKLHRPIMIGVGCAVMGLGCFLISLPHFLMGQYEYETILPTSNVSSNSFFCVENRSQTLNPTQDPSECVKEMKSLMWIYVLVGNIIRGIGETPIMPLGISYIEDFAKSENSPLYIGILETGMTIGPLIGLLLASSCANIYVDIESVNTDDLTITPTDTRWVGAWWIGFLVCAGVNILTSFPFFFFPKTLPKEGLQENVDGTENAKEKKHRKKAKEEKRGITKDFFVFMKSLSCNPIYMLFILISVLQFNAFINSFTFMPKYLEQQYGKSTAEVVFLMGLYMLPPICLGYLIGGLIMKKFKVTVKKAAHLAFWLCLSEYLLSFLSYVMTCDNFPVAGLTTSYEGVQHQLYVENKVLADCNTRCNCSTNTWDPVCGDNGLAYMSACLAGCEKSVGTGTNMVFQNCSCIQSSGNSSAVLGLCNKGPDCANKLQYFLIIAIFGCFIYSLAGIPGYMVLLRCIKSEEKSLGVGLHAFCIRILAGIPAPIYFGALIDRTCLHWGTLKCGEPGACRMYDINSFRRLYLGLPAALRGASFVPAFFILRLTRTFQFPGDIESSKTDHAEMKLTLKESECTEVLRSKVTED

[2] = target: T1, Solute carrier organic anion transporter family member 1A4; experiment: TP_TRANSPORTER: inhibition of Pravastatin uptake (Pravastatin: 30 uM, E217betaG: 300 uM) in Xenopus laevis oocytes; format: functional, cell-based; settings: oocyte
[3] = target: T1, Solute carrier organic anion transporter family member 1A4; experiment: TP_TRANSPORTER: inhibition of Pravastatin uptake (Pravastatin: 30 uM, BSP: 300 uM) in Xenopus laevis oocytes; format: functional, cell-based; settings: oocyte
[4] = substrate: CC[C@H](C)C(=O)O[C@H]1C[C@H](O)C=C2C=C[C@H](C)[C@H](CC[C@@H](O)C[C@@H](O)CC(=O)O)[C@H]21; experiment: TP_TRANSPORTER: uptake in Xenopus laevis oocytes; format: functional, cell-based, Oocyte

Activity [1]: inhibitor [+]
Molecule: CCC(C)(C)C(=O)O[C@H]1C[C@@H](C)C=C2C=C[C@H](C)[C@H](CC[C@@H]3C[C@@H](O)CC(=O)O3)[C@H]21 [SIMVASTATIN]

Molecule: C[C@]12CC[C@@H]3c4ccc(O)cc4CC[C@H]3[C@@H]1CC[C@@H]2O[C@@H]1O[C@H](C(=O)O)[C@@H](O)[C@H](O)[C@H]1O [ESTRADIOL 17B GLUCURONIDE]
Activity [2]: inhibitor [+]

Molecule: O=C1OC(c2ccc(O)c(S(=O)(=O)[O-])c2)(c2ccc(O)c(S(=O)(=O)[O-])c2)c2c(Br)c(Br)c(Br)c(Br)c21.[Na+].[Na+] [SULFOBROMOPHTHALEIN SODIUM]
Activity [3]: inhibitor [+]

B1: Solute carrier organic anion transporter family member 1A4 (Rattus norvegicus) (protein)
chain: T1 sequence (O35913 whole entry)
Km [4]: 37.5 µM
